This note sets out measurements from patent US20090234019A1, “T Type Calcium Channel Inhibitors” (priority 2004, published 2009).

In experiment [1] the test system is MDA-435 cells. The experiment can be described thus: Inhibition of proliferation of MDA-435 cells. It is filed as cell-based. The following applies: MDA435, NE = no effect at highest concentration of drug tested, read-out: prolif: IC50 for inhibition of proliferation, MDA-435.
Experiment [2] deals with Jurkat cells. The experiment can be described thus: Inhibition of calcium entry into Jurkat cells (indo-1 fluorescence). It is filed as cell-based, human. The note with it: Homo sapiens; Jurkat; NE = no effect at highest concentration of drug tested; read-out: Ca2+: IC50 for inhibition of calcium entry, Jurkat. Here is the method: Cells were incubated in growth media containing 1 uM of the acetoxy-methyl ester of the Ca2+-sensitive fluorescent dye indo-1 (indo-1/AM; Molecular Probes, Eugene, Oreg.) for 1 h at 37° C. Cells were washed three times in buffer A [10 mM HEPES (pH 7.4), 1 mM MgCl2, 3 mM KCl, 1 mM CaCl2, 140 mM NaCl, 0.1% glucose, and 1% fetal bovine serum] and suspended to a final concentration of 10^6 cells/ml. Before stimulation, cells were warmed to 37° C. Changes in [Ca2+]i were monitored in an SLM […] spectrofluorimeter (SLM/Aminco; Urbana, Ill.) using previously published methods ([…]., Szabo, G., and Gray, L. S. 1996. A voltage operable current is involved in activation-induced Ca^2+ entry in human lymphocytes whereas ICRAC has no apparent role. Am. J. Physiol. 271:[…]., and Gray, L. S. 1998. Calmodulin regulation of Ca^2+ entry in Jurkat T cells. Cell Calcium 23:361-368).

In experiment [3] the test system is PC3 cells. The experiment in a line: Inhibition of proliferation of PC3 cells. The note with it: Homo sapiens, PC-3; PC3; NE = no effect at highest concentration of drug tested; read-out: prolif: IC50 for inhibition of proliferation, PC3. It is filed as cell-based, human. Here is the method:
(§1) Cancer cell lines were obtained from the American Type Culture Collection (Manassas, Va.). Cell lines were maintained in RPMI1640 supplemented with glutamine and 5% fetal bovine serum containing SerXtend (Irvine Scientific) when appropriate insulin, as directed by the ATCC. The fetal bovine serum used for culture was heat-inactivated by maintaining the serum at 56° C. for 1 h. Cell lines used were a T celleukemia (Jurkat), prostate cancer (PC3, DU145, LNCAP), breast cancer (MDA468, MDA361, MCF7), pancreatic cancer (MIA PaCa2), liver cancer (Hep G2), lung cancer (A549, NCl H460), colon cancer (HT29, HCT 116), and ovarian cancer (SK-OV-3).
(§2) LNCaP cells at 2.5×10^4 cells/well or PC-3 cells at 5×10^4 cells/well, both in a final volume of […], were plated in triplicate in standard flat-bottomed 96-well tissue culture plates in the presence of drug or vehicle (DMSO). Unless otherwise indicated, cells were grown for 48 h at 37° C. in a CO2 incubator. Relative cell growth was determined with the CellTiter 96 aqueous cell proliferation assay (Promega, Madison, Wis.) as described by the manufacturer using an automated plate reader. Results were calculated in a blinded fashion and are the means of triplicate determinations.

Experiment [4] has as its system LNCaP cells. The experiment can be described thus: Inhibition of calcium entry into LNCaP cells. It is filed as cell-based. The following applies: Homo sapiens, NE = no effect at highest concentration of drug tested, read-out: Ca2+: IC50 for inhibition of calcium entry, LNCaP. Here is the method:
(§3) Cells were incubated in growth media containing 1 uM of the acetoxy-methyl ester of the Ca2+-sensitive fluorescent dye indo-1 (indo-1/AM; Molecular Probes, Eugene, Oreg.) for 1 h at 37° C. Cells were washed three times in buffer A [10 mM HEPES (pH 7.4), 1 mM MgCl2, 3 mM KCl, 1 mM CaCl2, 140 mM NaCl, 0.1% glucose, and 1% fetal bovine serum] and suspended to a final concentration of 10^6 cells/ml. Before stimulation, cells were warmed to 37° C. Changes in [Ca2+]i were monitored in an SLM 8100C spectrofluorimeter (SLM/Aminco; Urbana, Ill.) using previously published methods (Densmore, J. J., Haverstick, D. M., Szabo, G., and Gray, L. S. 1996. A voltage operable current is involved in activation-induced Ca^2+ entry in human lymphocytes whereas ICRAC has no apparent role. Am. J. Physiol. 271:C1494-C1503; Haverstick, D. M., Densmore, J. J., and Gray, L. S. 1998. Calmodulin regulation of Ca^2+ entry in Jurkat T cells. Cell Calcium 23:361-368).

The subject of experiment [5] is Jurkat cells. The experiment can be described thus: Inhibition of proliferation of Jurkat cells. The note with it: Homo sapiens; Jurkat; NE = no effect at highest concentration of drug tested; read-out: prolif: IC50 for inhibition of proliferation, Jurkat. It is filed as cell-based, human. Here is the method: as §1, §2
In experiment [6] the test system is MDA-435 cells. The experiment in a line: Inhibition of calcium entry into MDA-435 cells. Type of experiment: cell-based. The following applies: MDA435, NE = no effect at highest concentration of drug tested, read-out: Ca2+: IC50 for inhibition of calcium entry, MDA-435. As to the method: as §3
For experiment [7], the system named is MDA-231 cells. The experiment can be described thus: Inhibition of proliferation of MDA-231 cells. It is filed as cell-based. The following applies: Homo sapiens, MDA-MB-231, NE = no effect at highest concentration of drug tested, read-out: prolif: IC50 for inhibition of proliferation, MDA-231.
Experiment [8] relates to MDA-361 cells. The experiment can be described thus: Inhibition of proliferation of MDA-361 cells. It is filed as cell-based. The note with it: MDA361, NE = no effect at highest concentration of drug tested, read-out: prolif: IC50 for inhibition of proliferation, MDA-361. As to the method: as §1, §2
In experiment [9] the test system is MDA-231 cells. The experiment can be described thus: Inhibition of calcium entry into MDA-231 cells. It is filed as cell-based. The following applies: Homo sapiens, MDA-MB-231, NE = no effect at highest concentration of drug tested, read-out: Ca2+: IC50 for inhibition of calcium entry, MDA-231. Here is the method:
as §3

Experiment [10] concerns LNCaP cells. The experiment can be described thus: Inhibition of proliferation of LNCaP cells. It is filed as cell-based. The note with it: Homo sapiens, NE = no effect at highest concentration of drug tested, read-out: prolif: IC50 for inhibition of proliferation, LNCaP. Here is the method:
as §1, §2

Experiment [11] relates to MDA-361 cells. The experiment can be described thus: Inhibition of calcium entry into MDA-361 cells. It is filed as cell-based. The following applies: MDA361, NE = no effect at highest concentration of drug tested, read-out: Ca2+: IC50 for inhibition of calcium entry, MDA-361. Here is the method: as §3
For experiment [12], the system named is PC3 cells. The experiment in a line: Inhibition of calcium entry into PC3 cells. Type of experiment: cell-based. The note with it: Homo sapiens, PC-3, NE = no effect at highest concentration of drug tested, read-out: Ca2+: IC50 for inhibition of calcium entry, PC3. Here is the method:
as §3

Experiment [13] has as its system HEK293 cells stably transfected the α1H gene. The experiment can be described thus: Proliferation of HEK293 cells stably transfected with α1H. The note with it: FIG. 5. Type of experiment: cell-based.

In the case of `COc1ccc(CNCCCCCC(c2ccccc2)c2ccc(Cl)cc2)cc1` (stereo not shown) [Compound 3.1], the IC50 in experiment [1] was found to be 12 µM; in experiment [2], 10 µM; in [3] it was 11 µM; in experiment [4], 10 µM; in experiment [5], 4 µM; in experiment [6] it was 25 µM. Also, the IC50 in experiment [7] amounted to 8 µM; in experiment [8] it was 8 µM; in experiment [9], 10 µM; in [10], 3.5 µM; in experiment [11], 10 µM.

With `COc1ccc(CNCCCCOC(c2ccccc2)c2ccc(Cl)cc2)cc1` (stereo not shown) [Compound 3.2], the IC50 in experiment [1] turned out to be 10.5 µM; in experiment [2] it was 3 µM; in experiment [3], 9 µM; in experiment [12], 10 µM; in experiment [4] it was 5 µM; in experiment [5] it was 3 µM. In addition, the IC50 in [6] came to 10 µM; in experiment [7] it was 10 µM; in [8], 4 µM; in [9] it was 8 µM; in experiment [10] it was 2 µM; in experiment [11], 6 µM.

Turning to `COc1ccc(CCCNCCOC(c2ccccc2)c2ccc(Cl)cc2)cc1` (stereo not shown) [Compound 3.4], the IC50 in [1] is 10 µM; in [2] it was 3 µM; in experiment [3] it was 10 µM; in experiment [12], roughly 15 µM; in experiment [4] it was 15 µM; in experiment [5], 3.7 µM. Moreover, the IC50 in experiment [6] is 15 µM; in experiment [7] it was 4 µM; in experiment [8] it was 4 µM; in experiment [9] it was roughly 20 µM; in [10], 5.5 µM; in [11] it was 10 µM.

Consider `COc1ccc(C(O)CCCCOC(c2ccccc2)c2ccc(Cl)cc2)cc1` (stereo not shown) [Compound 3.5], for which the IC50 in experiment [1] turned out to be 65 µM; in experiment [2], 7 µM; in experiment [3], 33 µM; in [12], 30 µM; in experiment [4], 10 µM; in [5], 50 µM. Also, the IC50 in experiment [6] came out at 10 µM; in [7], 50 µM; in [8], 45 µM; in [9] it was 10 µM; in experiment [10], 25 µM; in experiment [11], 25 µM.

In the case of `COc1ccc(C(=O)CCCCOC(c2ccccc2)c2ccc(Cl)cc2)cc1` (stereo not shown) [Compound 3.6], the IC50 in [1], in [2], in [3], in experiment [12], in experiment [4] and in experiment [5] was greater than 100 µM each time. The IC50 is greater than 100 µM in [6]; greater than 100 µM in [7]; greater than 100 µM in experiment [8]; greater than 100 µM in experiment [9]; roughly 100 µM in experiment [10]; greater than 100 µM in [11].

For `COc1ccc(CCNCCOC(c2ccccc2)c2ccc(Cl)cc2)cc1` (stereo not shown) [Compound 3.8], the IC50 worked out at 15.7 µM in experiment [1]; 10 µM in experiment [2]; 11.5 µM in experiment [3]; 10 µM in experiment [12]; 10 µM in experiment [4]; 7.5 µM in [5]. Further, the IC50 was 10 µM in experiment [6]; 10.6 µM in [7]; 7.6 µM in [8]; 10 µM in experiment [9]; 3.5 µM in experiment [10]; 20 µM in experiment [11].

In the case of `COc1ccc(CNCCOC(c2ccccc2)c2ccc(Cl)cc2)cc1` (stereo not shown) [Compound 3.9], the IC50 in [1] amounted to 12 µM; in experiment [2], 3 µM; in experiment [3], 4 µM; in experiment [4], 3 µM; in [5], 3.8 µM; in experiment [6], 10 µM. In addition, the IC50 in experiment [7] came to 11.7 µM; in [8] it was 4 µM; in experiment [9], 10 µM; in experiment [10] it was 1.6 µM; in experiment [11], 5 µM.

For the compound `COc1ccc(CNCc2ccccc2COC(c2ccccc2)c2ccc(Cl)cc2)cc1` (stereo not shown) [Compound 3.11], the IC50 in experiment [1] was determined as 22 µM; in [2] it was 3.3 µM; in experiment [3], 14 µM; in experiment [5] it was 5.4 µM; in experiment [7] it was 11.6 µM; in experiment [8] it was 8.5 µM. Further, the IC50 was 20 µM in experiment [9], 3.3 µM in experiment [10] and 10 µM in [11].

As to `COc1ccc(NCCCCCCC(c2ccccc2)c2ccc(Cl)cc2)cc1` (stereo not shown) [Compound 3.17], the IC50 in [1] was greater than 100 µM; in experiment [2], 30 µM; in experiment [3], greater than 100 µM; in experiment [4], 30 µM; in experiment [5], greater than 100 µM; in experiment [6] it was 30 µM. The IC50 in experiment [7] was greater than 100 µM; in [9], 30 µM; in experiment [10], greater than 100 µM.

In the case of `COc1ccc(CCNCCCCC(c2ccccc2)c2ccc(Cl)cc2)cc1` (stereo not shown) [Compound 3.19], the IC50 in experiment [1] worked out at 11 µM; in experiment [2] it was 10 µM; in [3] it was 10 µM; in [4], 10 µM; in [5] it was 4 µM; in [6], 10 µM. Further, the results for the IC50 in experiment [7], in [9] and in experiment [10] were 6 µM, 10 µM and 3 µM, respectively.

Turning to `COc1ccc(CCCCNCCC(c2ccccc2)c2ccc(Cl)cc2)cc1` (stereo not shown) [Compound 3.21], the IC50 was determined as 9 µM in experiment [1]; 30 µM in experiment [2]; 11 µM in [3]; 30 µM in experiment [12]; 30 µM in experiment [5]; 15 µM in experiment [7]. The IC50 in experiment [9] worked out at 30 µM; in experiment [10], 7 µM.

Turning to `COCC(=O)O[C@]1(CCN(C)CCCc2nc3ccccc3[nH]2)CCc2cc(F)ccc2[C@@H]1C(C)C` [mibefradil, reference compound], the “proliferation of stably transfected HEK293 cells” value in experiment [13] is recorded as “inhibits proliferation”.
